Reference: ChEMBL document CHEMBL6127065, “Design and Synthesis of c-Met and HDAC Dual Inhibitors for the Treatment of Breast Cancer” (ACS Med Chem Lett, 2024)

Tests used:
[1] = system: MDA-MB-453; test: Antiproliferative activity against human MDA-MB-453 cells assessed as reduction in cell growth incubated for 72 hrs by MTT assay; conditions: MDA-MB-453, 72 h
[2] = system: MDA-MB-468; test: Antiproliferative activity against human MDA-MB-468 cells assessed as reduction in cell growth incubated for 72 hrs by MTT assay; conditions: MDA-MB-468, 72 h
[3] = system: MDA-MB-231; test: Antiproliferative activity against human MDA-MB-231 cells assessed as reduction in cell growth incubated for 72 hrs by MTT assay; conditions: MDA-MB-231, 72 h
[4] = target: T1, Protein deacetylase HDAC6 (Homo sapiens) (UniProt Q9UBN7); conditions: dose 1000.0 nM, time 60.0 min
T1 sequence (whole entry): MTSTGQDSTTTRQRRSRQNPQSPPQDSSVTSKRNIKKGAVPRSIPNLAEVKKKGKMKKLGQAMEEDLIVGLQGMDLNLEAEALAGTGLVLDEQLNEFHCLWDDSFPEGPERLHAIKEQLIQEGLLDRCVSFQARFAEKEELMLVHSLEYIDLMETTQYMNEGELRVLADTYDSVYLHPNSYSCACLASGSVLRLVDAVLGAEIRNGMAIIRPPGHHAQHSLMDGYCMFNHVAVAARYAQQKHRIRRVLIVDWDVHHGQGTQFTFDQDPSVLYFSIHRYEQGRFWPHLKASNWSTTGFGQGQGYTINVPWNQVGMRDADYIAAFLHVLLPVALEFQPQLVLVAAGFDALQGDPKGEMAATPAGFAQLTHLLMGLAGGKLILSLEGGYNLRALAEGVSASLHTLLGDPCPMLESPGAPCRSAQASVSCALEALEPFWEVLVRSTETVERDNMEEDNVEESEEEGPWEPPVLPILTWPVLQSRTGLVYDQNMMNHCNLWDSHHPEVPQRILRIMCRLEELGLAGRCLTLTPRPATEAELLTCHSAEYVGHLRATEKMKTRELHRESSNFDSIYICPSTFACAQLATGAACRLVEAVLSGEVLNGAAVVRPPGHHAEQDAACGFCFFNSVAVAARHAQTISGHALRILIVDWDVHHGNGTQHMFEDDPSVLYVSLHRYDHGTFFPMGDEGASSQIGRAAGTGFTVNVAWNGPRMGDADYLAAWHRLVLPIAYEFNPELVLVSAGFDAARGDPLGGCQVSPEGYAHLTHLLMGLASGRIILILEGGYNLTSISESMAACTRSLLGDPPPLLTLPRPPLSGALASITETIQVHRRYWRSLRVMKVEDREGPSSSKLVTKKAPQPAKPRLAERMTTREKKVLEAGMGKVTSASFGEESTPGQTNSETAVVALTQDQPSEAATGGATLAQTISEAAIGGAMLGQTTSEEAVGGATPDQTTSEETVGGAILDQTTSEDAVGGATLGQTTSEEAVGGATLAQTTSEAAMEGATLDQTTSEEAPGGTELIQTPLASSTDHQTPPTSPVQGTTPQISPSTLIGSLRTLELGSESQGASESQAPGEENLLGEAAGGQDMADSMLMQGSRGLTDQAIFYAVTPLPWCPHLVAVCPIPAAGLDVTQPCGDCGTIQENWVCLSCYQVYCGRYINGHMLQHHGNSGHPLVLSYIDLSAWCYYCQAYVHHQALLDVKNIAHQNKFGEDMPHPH

Compound | IC50 [1] [µM] | IC50 [2] [µM] | IC50 [3] [µM] | inhibition [4] [%]
CC(c1ccc2ncccc2c1)n1nnc2ncc(N3CCN(CCC(=O)Nc4ccc(F)cc4N)CC3)nc21 (configuration not stated) | 27.6 | 9.15 | 22.7 | 
CC(c1ccc2ncccc2c1)n1nnc2ncc(N3CCN(CCCC(=O)Nc4ccc(F)cc4N)CC3)nc21 (configuration not stated) | 31.1 | 12.1 | 26.6 | 
CC(c1ccc2ncccc2c1)n1nnc2ncc(N3CCN(CCC(=O)Nc4ccccc4N)CC3)nc21 (configuration not stated) | 30.8 | 21.9 | 30.4 | 

Other lines, results leading:

IC50 [1] [µM] | IC50 [2] [µM] | IC50 [3] [µM] | inhibition [4] [%] | Compound
27.2 | 14.2 | 26.6 |  | CC(c1ccc2ncccc2c1)n1nnc2ncc(N3CCN(CC(=O)Nc4ccccc4N)CC3)nc21 (configuration not stated)
16 | 12.8 | 15.3 |  | CC(c1ccc2ncccc2c1)n1nnc2ncc(N3CCN(Cc4ccc(C(=O)Nc5ccccc5N)cc4)CC3)nc21 (configuration not stated)
4.69 | 2.62 | 4.9 |  | C[C@@H](Oc1cc(-c2cnn(C3CCNCC3)c2)cnc1N)c1c(Cl)ccc(F)c1Cl [CRIZOTINIB]
0.63 | 3.48 | 1.72 | 2.6 | Nc1cc(F)ccc1NC(=O)c1ccc(CNC(=O)/C=C/c2cccnc2)cc1 [TUCIDINOSTAT]
